Data: article PMC8880564, “Design, Synthesis, and Biological Evaluation of a Novel VEGFR-2 Inhibitor Based on a 1,2,5-Oxadiazole-2-Oxide Scaffold with MAPK Signaling Pathway Inhibition” (Pharmaceuticals, 2022)

Assays:
Experiment in all cases: NCI-60 one-dose SRB screening
Format in all cases: cell-based
[1] = system: UO-31; conditions: Homo sapiens, UO-31, Renal Cancer, 10 µM one dose, 48 h, read-out: growth percentage
[2] = system: BT-549; conditions: Homo sapiens, BT-549, Breast Cancer, 10 µM one dose, 48 h, read-out: growth percentage
[3] = system: SNB-19; conditions: Homo sapiens, SNB-19, CNS Cancer, 10 µM one dose, 48 h, read-out: growth percentage
[4] = system: RPMI-8226; conditions: Homo sapiens, RPMI-8226, Leukemia, 10 µM one dose, 48 h, read-out: growth percentage
[5] = system: NCI/ADR-RES; conditions: Homo sapiens, Ovarian Cancer, 10 µM one dose, 48 h, read-out: growth percentage
[6] = system: SK-MEL-2; conditions: Homo sapiens, SK-MEL-2, Melanoma, 10 µM one dose, 48 h, read-out: growth percentage
[7] = system: IGROV1; conditions: Homo sapiens, IGROV-1, IGROV1, Ovarian Cancer, 10 µM one dose, 48 h, read-out: growth percentage
[8] = system: M14; conditions: Homo sapiens, M14, Melanoma, 10 µM one dose, 48 h, read-out: growth percentage
[9] = system: EKVX; conditions: Homo sapiens, Non-Small Cell Lung Cancer, 10 µM one dose, 48 h, read-out: growth percentage
[10] = system: HOP-92; conditions: Homo sapiens, HOP-92, Non-Small Cell Lung Cancer, 10 µM one dose, 48 h, read-out: growth percentage
[11] = system: NCI-H23; conditions: Homo sapiens, NCI-H23, Non-Small Cell Lung Cancer, 10 µM one dose, 48 h, read-out: growth percentage
[12] = system: MDA-MB-468; conditions: Homo sapiens, MDA-MB-468, Breast Cancer, 10 µM one dose, 48 h, read-out: growth percentage
[13] = system: MDA-MB-435; conditions: Homo sapiens, MDA-MB-435, Melanoma, 10 µM one dose, 48 h, read-out: growth percentage
[14] = system: OVCAR-4; conditions: Homo sapiens, OVCAR-4, Ovarian Cancer, 10 µM one dose, 48 h, read-out: growth percentage
[15] = system: SK-MEL-28; conditions: Homo sapiens, SK-MEL-28, Melanoma, 10 µM one dose, 48 h, read-out: growth percentage
[16] = system: OVCAR-8; conditions: Homo sapiens, OVCAR-8, Ovarian Cancer, 10 µM one dose, 48 h, read-out: growth percentage
[17] = system: RXF 393; conditions: Homo sapiens, RXF 393, Renal Cancer, 10 µM one dose, 48 h, read-out: growth percentage
[18] = system: A549/ATCC; conditions: Homo sapiens, Non-Small Cell Lung Cancer, 10 µM one dose, 48 h, read-out: growth percentage
[19] = system: 786-0; conditions: Homo sapiens, 786-0, Renal Cancer, 10 µM one dose, 48 h, read-out: growth percentage
[20] = system: HCC-2998; conditions: Homo sapiens, HCC-2998, Colon Cancer, 10 µM one dose, 48 h, read-out: growth percentage
[21] = system: TK-10; conditions: Homo sapiens, TK-10, Renal Cancer, 10 µM one dose, 48 h, read-out: growth percentage
[22] = system: NCI-H522; conditions: Homo sapiens, NCI-H522, Non-Small Cell Lung Cancer, 10 µM one dose, 48 h, read-out: growth percentage

Row | Compound | activity at 10 µM [1] | activity at 10 µM [2] | activity at 10 µM [3] | activity at 10 µM [4] | activity at 10 µM [5] | activity at 10 µM [6] | activity at 10 µM [7] | activity at 10 µM [8] | activity at 10 µM [9] | activity at 10 µM [10] | activity at 10 µM [11] | activity at 10 µM [12] | activity at 10 µM [13] | activity at 10 µM [14] | activity at 10 µM [15] | activity at 10 µM [16] | activity at 10 µM [17] | activity at 10 µM [18] | activity at 10 µM [19] | activity at 10 µM [20] | further results
1 | Cc1nc(Nc2ccc(OCc3c(-c4ccccc4)no[n+]3[O-])cc2)c2c(C)nn(-c3ccc(Br)cc3)c2n1 [6h, 3-((4-((1-(4-bromophenyl)-3,6-dimethyl-1H-pyrazolo[3,4-d]pyrimidin-4-yl)amino)phenoxy)methyl)-4-phenyl-1,2,5-oxadiazole 2-oxide] | 74% | 91.1% | 94.5% | 90.6% | 102% | 96.9% | 99% | 89.5% | 92.3% | 94.6% | 96.6% | 116% | 96.7% | 97% | 101% | 102% | 136% | 96.4% | 107% | 106% | activity at 10 µM [21]: 114%; activity at 10 µM [22]: 84%
2 | Cc1nn(-c2ccccc2)c2nc(C(F)(F)F)nc(Nc3ccc(NCc4c(-c5ccccc5)no[n+]4[O-])cc3)c12 [12a, 3-(((4-((3-methyl-1-phenyl-6-(trifluoromethyl)-1H-pyrazolo[3,4-d]pyrimidin-4-yl)amino)phenyl)amino)methyl)-4-phenyl-1,2,5-oxadiazole 2-oxide] | 57.5% | 103% | 88% | 83.4% | 83% | 106% | 77.9% | 68.7% | 73.2% | 90.1% | 96.7% | 75.8% | 78.7% | 70.8% | 92.4% | 89.7% | 86.8% | 76.6% | 92.4% | 85.6% | activity at 10 µM [21]: 94.4%; activity at 10 µM [22]: 91.4%
3 | [O-][n+]1onc(-c2ccccc2)c1CNc1ccc(Nc2nc(C(F)(F)F)nc3c2cnn3-c2ccc(Br)cc2)cc1 [12b, 3-(((4-((1-(4-bromophenyl)-6-(trifluoromethyl)-1H-pyrazolo[3,4-d]pyrimidin-4-yl)amino)phenyl)amino)methyl)-4-phenyl-1,2,5-oxadiazole 2-oxide] | 43.4% | 97.5% | 78.9% | 73.8% | 66.4% | 99.8% | 60.1% | 68.2% | 65.4% | 68.4% | 72.4% | 72% | 72.8% | 78.5% | 89.2% | 72.8% | 51.2% | 64.4% | 67.2% | 75.1% | activity at 10 µM [21]: 86.8%; activity at 10 µM [22]: 72.6%
4 | Cc1nn(-c2ccc(Br)cc2)c2nc(C(F)(F)F)nc(Nc3ccc(NCc4c(-c5ccccc5)no[n+]4[O-])cc3)c12 [12c, 3-(((4-((1-(4-bromophenyl)-3-methyl-6-(trifluoromethyl)-1H-pyrazolo[3,4-d]pyrimidin-4-yl)amino)phenyl)amino)methyl)-4-phenyl-1,2,5-oxadiazole 2-oxide] | 50.3% | 97.4% | 84.1% | 91.1% | 88.8% | 104% | 59.6% | 71.9% | 71.1% | 82.3% | 91.6% | 84.2% | 86.6% | 81.3% | 89.5% | 75.8% | 89.2% | 82.4% | 88.1% | 96.1% | activity at 10 µM [21]: 109%; activity at 10 µM [22]: 83.5%
5 | O=c1[nH]c(CCl)nc2c1cnn2-c1ccccc1 [13a] | -20.9% | 94.1% | 96.3% | 82.5% | 104% | 104% | 96.2% | 110% | 100% | 101% | 101% | 96.6% | 95.7% | 100% | -89.8% | 114% | 94.1% | 98.5% | 122% | 105% | activity at 10 µM [21]: 154%; activity at 10 µM [22]: 103%
6 | Cc1nn(-c2ccc(Br)cc2)c2nc(CCl)[nH]c(=O)c12 [13c] | -90.1% | 101% | 97.1% | -53.9% | 102% | 103% | 95.1% | 106% | 99.5% | 101% | 103% | 94% | 101% | 116% | 99.9% | 102% | 119% | 96.9% | 106% | 105% | activity at 10 µM [21]: 111%; activity at 10 µM [22]: 85.5%
7 | O=c1[nH]c(CNc2ccc(NCc3c(-c4ccccc4)no[n+]3[O-])cc2)nc2c1cnn2-c1ccccc1 [14a, 3-(((4-(((4-oxo-1-phenyl-4,5-dihydro-1H-pyrazolo[3,4-d]pyrimidin-6-yl)methyl)amino)phenyl)amino)methyl)-4-phenyl-1,2,5-oxadiazole 2-oxide] | 55.9% | 62.1% | 94% | 61.9% | 79.4% | 77.8% | 52.5% | 80% | 51.3% | 85.4% | 63.4% | 33.2% | 70.7% | 94.5% | 77.2% | 109% | 98.4% | 63.8% | 102% | 84.4% | activity at 10 µM [21]: 102%; activity at 10 µM [22]: 60.8%
8 | Cc1nn(-c2ccccc2)c2nc(CNc3ccc(NCc4c(-c5ccccc5)no[n+]4[O-])cc3)[nH]c(=O)c12 [14b, 3-(((4-(((3-methyl-4-oxo-1-phenyl-4,5-dihydro-1H-pyrazolo[3,4-d]pyrimidin-6-yl)methyl)amino)phenyl)amino)methyl)-4-phenyl-1,2,5-oxadiazole 2-oxide] | 72.4% | 95.9% | 101% | 79% | 92.4% | 100% | 64.4% | 106% | 83% | 93.2% | 86.6% | 66.9% | 91.6% | 102% | 99.2% | 117% | 108% | 74.3% | 125% | 111% | activity at 10 µM [21]: 137%; activity at 10 µM [22]: 80.9%
